# The source made the active and inactive calls. The rule behind the calls is not given here.
# Assays:
# [1] = Toxicity in ICR mouse assessed as effect on AST level at 12 umol/kg, ip measured after 12 hrs in presence of CDDO-Me; assay type: organism-based; conditions: in vivo, dose 12 µmol/kg
# A549 [2] = assay: Antitumor activity at human A549 cells xenografted in BALB/c mouse assessed as reduction in tumor growth at 12 umol/kg, iv administered for 20 days and measured every 3 days for 21 days in presence of CDDO-Me; assay type: functional, organism-based; conditions: dose 12.0 µmol/kg, time 21.0 day
# HFL1 [3] = assay: Synergistic antiproliferative activity against human HFL1 cells at 2.5 to 12.5 uM measured after 72 hrs in presence of CDDO-Me by MTT assay; assay type: toxicity, cell-based; conditions: hfl1, 72 h, dose 2.5-12.5 µM
# [4] = Toxicity in ICR mouse assessed as effect on ALT level at 12 umol/kg, ip measured after 12 hrs in presence of CDDO-Me; assay type: organism-based; conditions: in vivo, dose 12 µmol/kg
# L02 [5] = assay: Synergistic antiproliferative activity against human L02 cells at 2.5 to 12.5 uM measured after 72 hrs in presence of CDDO-Me by MTT assay; assay type: toxicity, cell-based; conditions: l02, 72 h, dose 2.5-12.5 µM
# [6] = Stability of the compound in rat plasma assessed as prodrug release at 100 ug/ml measured for 8 hrs by HPLC analysis; assay type: ADME, cell-free; conditions: at 100 µg/mL
# A549 [7] = assay: Induction of ROS accumulation in human A549 cells at 15 uM incubated for 2 hrs by DCFH2-DA staining based confocal microscopic analysis; assay type: functional, cell-based
# A549 [8] = assay: Induction of necrosis in human A549 cells xenografted in BALB/c mouse at 12 umol/kg, iv administered for 20 days and measured every 3 days for 21 days by H and E staining based assay; assay type: functional, organism-based; conditions: dose 12.0 µmol/kg, time 21.0 day
# A549 [9] = assay: Induction of DNA damage in human A549 cells assessed as increase in H2AX level incubated for 72 hrs by Western blot analysis; assay type: functional, cell-based; conditions: dose 1-4 µM, DDE = dose-dependent effect
# A549 [10] = assay: Synergistic antiproliferative activity against human A549 cells at 2.5 to 12.5 uM measured after 72 hrs in presence of CDDO-Me by MTT assay; assay type: functional, cell-based; conditions: dose 2.5-12.5 µM
# [11] = Drug localization in mitochondria of human A549 cells measured after 4 hrs by Mito Tracker Green FM based confocal laser scanning microscopy analysis; assay type: ADME; conditions: a549, 4 h
# [12] = target: T1, Histone deacetylase (Homo sapiens) (UniProt Q13547+O15379+Q9UBN7+Q92769+Q9UQL6+Q8WUI4+Q9BY41+Q96DB2+P56524+Q9UKV0+Q969S8); assay: Inhibition of HDAC in human A549 cells assessed as activation of Bax expression at 1 to 4 uM incubated for 72 hrs in presence of CDDO-Me by Western blot analysis; assay type: cell-based; conditions: dose 1-4 µM
# [13] = Toxicity in ICR mouse assessed as effect on AST level at 12 umol/kg, ip measured after 12 hrs; assay type: organism-based; conditions: in vivo, dose 12 µmol/kg
# HepG2 [14] = assay: Synergistic antiproliferative activity against human HepG2 cells at 2.5 to 12.5 uM measured after 72 hrs in presence of CDDO-Me by MTT assay; assay type: functional, cell-based; conditions: dose 2.5-12.5 µM
# A549 [15] = assay: Induction of mitochondrial membrane depolarization in human A549 cells at 15 uM incubated for 2 hrs by JC-1 staining based analysis; assay type: functional, cell-based
# A549 [16] = assay: Induction of necrosis in human A549 cells xenografted in BALB/c mouse at 12 umol/kg, iv administered for 20 days and measured every 3 days for 21 days by TUNEL assay; assay type: functional, organism-based; conditions: dose 12.0 µmol/kg, time 21.0 day
# A549 [17] = assay: Synergistic antiproliferative activity against human A549 cells at 2.5 to 12.5 uM measured after 72 hrs in presence of SAHA by MTT assay; assay type: functional, cell-based; conditions: dose 2.5-12.5 µM
# L02 [18] = assay: Synergistic antiproliferative activity against human L02 cells at 2.5 to 12.5 uM measured after 72 hrs in presence of SAHA by MTT assay; assay type: toxicity, cell-based; conditions: l02, 72 h, dose 2.5-12.5 µM
# A549 [19] = assay: Induction of apoptosis in human A549 cells assessed as upregulation of cleaved-PARP level at 1 to 4 uM incubated for 72 hrs by Western blot analysis; assay type: functional, cell-based; conditions: dose 1-4 µM
# A549 [20] = assay: Induction of apoptosis in human A549 cells xenografted in BALB/c mouse at 12 umol/kg, iv administered for 20 days and measured every 3 days for 21 days by H and E staining based assay; assay type: functional; conditions: dose 12 µmol/kg, time 21 day
# HT-29 [21] = assay: Synergistic antiproliferative activity against human HT-29 cells at 2.5 to 12.5 uM measured after 72 hrs in presence of CDDO-Me by MTT assay; assay type: functional, cell-based; conditions: dose 2.5-12.5 µM
# MCF7 [22] = assay: Synergistic antiproliferative activity against human MCF7 cells at 2.5 to 12.5 uM measured after 72 hrs in presence of SAHA by MTT assay; assay type: functional, cell-based; conditions: dose 2.5-12.5 µM
# [23] = Toxicity in ICR mouse assessed as effect on ALT level at 12 umol/kg, ip measured after 12 hrs; assay type: organism-based; conditions: in vivo, dose 12 µmol/kg
# [24] = Toxicity in ICR mouse assessed as accumulation of lipid droplets in liver at 12 umol/kg, ip measured after 12 hrs by H and E staining based analysis; assay type: organism-based; conditions: in vivo, dose 12 µmol/kg
# [25] = Toxicity in BALB/c mouse xenografted with human A549 cells assessed as change in body weight at 12 umol/kg, iv administered for 20 days and measured every 3 days for 21 days; assay type: organism-based; conditions: in vivo, 504 h, dose 12 µmol/kg, time 21 day
# MCF7 [26] = assay: Synergistic antiproliferative activity against human MCF7 cells at 2.5 to 12.5 uM measured after 72 hrs in presence of CDDO-Me by MTT assay; assay type: functional, cell-based; conditions: dose 2.5-12.5 µM
# [27] = Stability of the compound in rat plasma assessed as prodrug release at 100 ug/ml measured for 8 to 12 hrs by HPLC analysis; assay type: ADME, cell-free; conditions: at 100 µg/mL, time 8-12 hrs
# [28] = target: T1, Histone deacetylase (Homo sapiens); assay: Inhibition of HDAC in human A549 cells assessed as activation of Bax expression at 1 to 4 uM incubated for 72 hrs in presence of SAHA by Western blot analysis; assay type: cell-based; conditions: dose 1-4 µM
# HFL1 [29] = assay: Synergistic antiproliferative activity against human HFL1 cells at 2.5 to 12.5 uM measured after 72 hrs in presence of SAHA by MTT assay; assay type: toxicity, cell-based; conditions: hfl1, 72 h, dose 2.5-12.5 µM
# A549 [30] = assay: Induction of apoptosis in human A549 cells assessed as upregulation of Bax level at 1 to 4 uM incubated for 72 hrs by Western blot analysis; assay type: functional, cell-based; conditions: dose 1-4 µM
# A549 [31] = assay: Antitumor activity at human A549 cells xenografted in BALB/c mouse assessed as reduction in tumor growth at 12 umol/kg, iv administered for 20 days and measured every 3 days for 21 days; assay type: functional, organism-based; conditions: dose 12.0 µmol/kg, time 21.0 day
# HepG2 [32] = assay: Synergistic antiproliferative activity against human HepG2 cells at 2.5 to 12.5 uM measured after 72 hrs in presence of SAHA by MTT assay; assay type: functional, cell-based; conditions: dose 2.5-12.5 µM
# [33] = target: T2, Protein deacetylase HDAC6 (Homo sapiens) (UniProt Q9UBN7); assay: Inhibition of HDAC6 in human A549 cells assessed as reduction in HDAC expression at 1 to 4 uM incubated for 72 hrs by Western blot analysis; assay type: cell-based; conditions: dose 1-4 µM
# T2 sequence (whole entry): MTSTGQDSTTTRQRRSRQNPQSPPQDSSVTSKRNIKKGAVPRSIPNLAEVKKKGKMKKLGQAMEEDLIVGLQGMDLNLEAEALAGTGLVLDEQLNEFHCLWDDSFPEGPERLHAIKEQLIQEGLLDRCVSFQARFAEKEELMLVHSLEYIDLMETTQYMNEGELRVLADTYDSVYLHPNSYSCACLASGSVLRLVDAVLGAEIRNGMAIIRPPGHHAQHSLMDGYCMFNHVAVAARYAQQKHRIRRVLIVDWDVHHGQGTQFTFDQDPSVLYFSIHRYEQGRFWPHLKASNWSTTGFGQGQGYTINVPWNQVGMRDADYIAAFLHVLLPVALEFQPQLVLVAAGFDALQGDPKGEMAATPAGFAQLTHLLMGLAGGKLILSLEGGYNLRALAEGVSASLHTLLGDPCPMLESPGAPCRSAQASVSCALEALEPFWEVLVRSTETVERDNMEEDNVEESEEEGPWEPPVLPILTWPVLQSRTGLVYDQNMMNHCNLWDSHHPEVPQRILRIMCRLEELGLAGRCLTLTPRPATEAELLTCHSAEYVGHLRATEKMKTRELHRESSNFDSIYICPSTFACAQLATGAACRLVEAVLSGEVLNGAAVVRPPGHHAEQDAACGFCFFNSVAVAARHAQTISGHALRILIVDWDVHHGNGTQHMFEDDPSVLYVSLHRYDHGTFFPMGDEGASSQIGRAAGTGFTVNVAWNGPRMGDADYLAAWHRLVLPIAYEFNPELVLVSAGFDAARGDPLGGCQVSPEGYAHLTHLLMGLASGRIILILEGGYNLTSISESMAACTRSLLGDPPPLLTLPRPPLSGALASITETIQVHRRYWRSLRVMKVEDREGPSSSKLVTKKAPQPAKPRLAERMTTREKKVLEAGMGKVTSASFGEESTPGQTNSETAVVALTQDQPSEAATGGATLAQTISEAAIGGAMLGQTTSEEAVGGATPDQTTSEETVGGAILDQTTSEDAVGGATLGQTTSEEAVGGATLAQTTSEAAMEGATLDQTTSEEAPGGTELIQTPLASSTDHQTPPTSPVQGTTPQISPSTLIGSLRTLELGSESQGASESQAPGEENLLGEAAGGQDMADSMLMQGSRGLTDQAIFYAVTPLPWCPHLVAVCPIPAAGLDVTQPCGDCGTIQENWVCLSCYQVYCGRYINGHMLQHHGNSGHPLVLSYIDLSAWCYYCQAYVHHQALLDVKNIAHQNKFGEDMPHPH
# [34] = Drug distribution in BALB/c mouse xenografted with human A549 cells assessed as increase in fluorescence in tumor signal at 20 mg/kg, iv measured after 4 to 24 hrs post injection; assay type: ADME, organism-based; conditions: in vivo, time 4-24 hrs
# A549 [35] = assay: Induction of apoptosis in human A549 cells assessed as upregulation of Mcl-1 level at 1 to 4 uM incubated for 72 hrs by Western blot analysis; assay type: functional, cell-based; conditions: dose 1-4 µM
# HT-29 [36] = assay: Synergistic antiproliferative activity against human HT-29 cells at 2.5 to 12.5 uM measured after 72 hrs in presence of SAHA by MTT assay; assay type: functional, cell-based; conditions: dose 2.5-12.5 µM
# A549 [37] = assay: Induction of apoptosis in human A549 cells xenografted in BALB/c mouse at 12 umol/kg, iv administered for 20 days and measured every 3 days for 21 days by TUNEL assay; assay type: functional, organism-based; conditions: dose 12.0 µmol/kg, time 21.0 day
structure (smiles),measurement,setting,value
O=C(CCCCCCC(=O)Nc1ccccc1)NO [VORINOSTAT],Activity,[1],Toxic
same,Activity,A549 [2],Active
same,Activity,HFL1 [3],Non-Toxic
same,Activity,[4],Toxic
same,Activity,L02 [5],Non-Toxic
COC(=O)[C@]12CCC(C)(C)C[C@H]1[C@H]1C(=O)C=C3[C@@]4(C)C(ONC(=O)CCCCCCC(=O)Nc5ccccc5)C(C#N)=C(OCc5ccc(OC(=O)C(C)SCCCSC(C)C(=O)Oc6ccc7c(c6)OC6=C(/C=C/C8=[N+](CCCc9cn(CCOCCOCCNC(=O)CCCC[C@H]%10SC[C@H]%11NC(=O)N[C@H]%11%10)nn9)c9ccc%10ccccc%10c9C8(C)C)CCCC6=C7)cc5)C(C)(C)[C@@H]4CC[C@@]3(C)[C@]1(C)CC2.[I-] (some centres undefined),Drug metabolism,[6],< 10%
same,Activity,A549 [7],Active
same,Activity,A549 [8],Active
same,Activity,A549 [9],Dde
same,Activity,A549 [10],Active
same,Drug uptake,[11],Active
same,inhibition,[12],Active
same,Activity,[13],Non-Toxic
same,Activity,HepG2 [14],Active
same,Activity,A549 [15],Active
same,Activity,A549 [16],Active
same,Activity,A549 [17],Active
same,Activity,L02 [18],Non-Toxic
same,Activity,HFL1 [3],Non-Toxic
same,Activity,A549 [19],Active
same,Activity,A549 [20],53.3%
same,Activity,HT-29 [21],Active
same,Activity,MCF7 [22],Active
same,Activity,[23],Non-Toxic
same,Activity,[24],Non-Toxic
same,Activity,[25],Non-Toxic
same,Activity,L02 [5],Non-Toxic
same,Activity,MCF7 [26],Active
same,Drug metabolism,[27],20%
same,inhibition,[28],Active
same,Activity,HFL1 [29],Non-Toxic
same,Activity,A549 [30],Active
same,Activity,A549 [31],Active
same,Activity,HepG2 [32],Active
same,inhibition,[33],Active
same,Drug uptake,[34],Active
same,Activity,A549 [35],Active
same,Activity,HT-29 [36],Active
same,Activity,A549 [37],Active
